Reference: US20250074920A1, “MACROCYCLIC COMPOUNDS AND USE AS KINASE INHIBITORS” (BLOSSOMHILL THERAPEUTICS, INC., priority 2022, published 2025)

Columns and labels:
Experiment in all cases: KINOMEscan kinase binding assay
[1] = tested on: JAK2(JH1domain-catalytic)
Protocol: (§1) Kinase binding assays were performed at Eurofins/DiscoveRx using the general KINOMEscan Protocol (Fabian, M. A. et al., “A small molecule-kinase interaction map for clinical kinase inhibitors,” Nat. Biotechnol. 2005, 23(3):329-36). For most assays, kinase-tagged T7 phage strains were prepared in an E. coli host derived from the BL21 strain. E. coli were grown to log-phase and infected with T7 phage and incubated with shaking at 32° C. until lysis. The lysates were centrifuged and filtered to remove cell debris. The remaining kinases were produced in HEK-293 cells and subsequently tagged with DNA for qPCR detection. Streptavidin-coated magnetic beads were treated with biotinylated small molecule ligands for 30 minutes at room temperature to generate affinity resins for kinase assays. The liganded beads were blocked with excess biotin and washed with blocking buffer (SeaBlock (Pierce), 1% BSA, 0.05% Tween 20, 1 mM DTT) to remove unbound ligand and to reduce nonspecific binding. Binding reactions were assembled by combining kinases, liganded affinity beads, and test compounds in 1× binding buffer (20% SeaBlock, 0.17×PBS, 0.05% Tween 20, 6 mM DTT). All reactions were performed in polystyrene 96-well plates in a final volume of 0.135 mL. The assay plates were incubated at room temperature with shaking for 1 hour and the affinity beads were washed with wash buffer (1×PBS, 0.05% Tween 20). The beads were then re-suspended in elution buffer (1×PBS, 0.05% Tween 20, 0.5 μM non-biotinylated affinity ligand) and incubated at room temperature with shaking for 30 minutes. The kinase concentration in the eluates was measured by qPCR. Results for compounds tested in this assay at a given concentration are reported as “% Ctrl”, where lower numbers indicate stronger binding in the matrix. % Ctrl was calculated as (test compound signal-positive control signal)/(negative control signal-positive control signal)×100. Dissociation constants (Kds) for test compound-kinase interactions were calculated by measuring the amount of kinase captured on the solid support as a function of the test compound concentration.

ERBB3 = details: at 1 μM
Protocol: as §1

[2] = tested on: TYK2(JH2domain-pseudokinase)
Protocol: as §1

FGR = details: at 1 μM
Protocol: as §1

[3] = tested on: ABL1(H396P)-nonphosphorylated; details: at 1 μM
Protocol: as §1

FLT3(N841I) = details: at 1 μM
Protocol: as §1

ABL1-phosphorylated = details: at 1 μM
Protocol: as §1

FLT4 = details: at 1 μM
Protocol: as §1

[4] = tested on: ABL1(F317L)-phosphorylated; details: at 1 μM
Protocol: as §1

EPHA8 = details: at 1 μM
Protocol: as §1

DDR2 = details: at 1 μM
Protocol: as §1

MET = details: at 1 μM
Protocol: as §1

KIT(D816V) = details: at 1 μM
Protocol: as §1

FER = details: at 1 μM
Protocol: as §1

[5] = tested on: ABL1(T315I)-phosphorylated; details: at 1 μM
Protocol: as §1

[6] = tested on: ABL1(Q252H)-phosphorylated; details: at 1 μM
Protocol: as §1

KIT(L576P) = details: at 1 μM
Protocol: as §1

[7] = tested on: ABL1(Y253F)-phosphorylated; details: at 1 μM
Protocol: as §1

CTK = details: at 1 μM
Protocol: as §1

ERBB2 = details: at 1 μM
Protocol: as §1

ALK(L1196M) = details: at 1 μM
Protocol: as §1

EGFR(T790M) = details: at 1 μM
Protocol: as §1

EPHB6 = details: at 1 μM
Protocol: as §1

EPHB4 = details: at 1 μM
Protocol: as §1

[8] = tested on: ABL1(F3171)-phosphorylated; details: at 1 μM
Protocol: as §1

KIT-autoinhibited = details: at 1 μM
Protocol: as §1

FLT3(D835V) = details: at 1 μM
Protocol: as §1

[9] = tested on: ABL1(E255K)-phosphorylated; details: at 1 μM
Protocol: as §1

EGFR = details: at 1 μM
Protocol: as §1

ALK(C1156Y) = details: at 1 μM
Protocol: as §1

EGFR(L861Q) = details: at 1 μM
Protocol: as §1

EGFR(G719C) = details: at 1 μM
Protocol: as §1

KIT(A829P) = details: at 1 μM
Protocol: as §1

FLT1 = details: at 1 μM
Protocol: as §1

FLT3(D835Y) = details: at 1 μM
Protocol: as §1

EPHA5 = details: at 1 μM
Protocol: as §1

YES = details: at 1 μM
Protocol: as §1

RET = details: at 1 μM
Protocol: as §1

ABL1-nonphosphorylated = details: at 1 μM
Protocol: as §1

PDGFRA = details: at 1 μM
Protocol: as §1

Cc1cc2c([nH]1)/C=C1\C(=O)Nc3c(Cl)cc(cc31)-c1cn(C)nc1COC[C@@H](C)N(C)C2=O [Cpd. 5, [3a(4)Z,10R]-20-chloro-6,9,10,15-tetramethyl-10,11,13,15-tetrahydro-2H-1,17-(ethanediylidene)pyrazolo[4,3-m]dipyrrolo[3,2-f:3′,4′-i][1,4]oxazacyclopentadecine-3,8(5H,9H)-dione]
% Ctrl ([1]; JAK2(JH1domain-catalytic), at 1 μM): 89%
Kd ([1]; read-out: JAK2(JH1 domain-catalytic) Kd): > 10000 nM
% Ctrl (ERBB3): 71%
% Ctrl ([2]; TYK2(JH2domain-pseudokinase), at 1 μM): 0%
Kd ([2]; read-out: TYK2(JH2 domain-pseudokinase) Kd): 0.18 nM
% Ctrl (FGR): 93%
% Ctrl [3]: 98%
% Ctrl (FLT3(N841I)): 86%
% Ctrl (ABL1-phosphorylated): 79%
% Ctrl (FLT4): 98%
% Ctrl [4]: 83%
% Ctrl (EPHA8): 77%
% Ctrl (DDR2): 76%
% Ctrl (MET): 96%
% Ctrl (KIT(D816V)): 100%
% Ctrl (FER): 68%
% Ctrl [5]: 70%
% Ctrl [6]: 89%
% Ctrl (KIT(L576P)): 97%
% Ctrl [7]: 73%
% Ctrl (CTK): 84%
% Ctrl (ERBB2): 100%
% Ctrl (ALK(L1196M)): 86%
% Ctrl (EGFR(T790M)): 80%
% Ctrl (EPHB6): 92%
% Ctrl (EPHB4): 91%
% Ctrl [8]: 97%
% Ctrl (KIT-autoinhibited): 83%
% Ctrl (FLT3(D835V)): 89%
% Ctrl [9]: 79%
% Ctrl (EGFR): 96%
% Ctrl (ALK(C1156Y)): 90%
% Ctrl (EGFR(L861Q)): 94%
% Ctrl (EGFR(G719C)): 100%
% Ctrl (KIT(A829P)): 84%
% Ctrl (FLT1): 93%
% Ctrl (FLT3(D835Y)): 100%
% Ctrl (EPHA5): 97%
% Ctrl (YES): 86%
% Ctrl (RET): 95%
% Ctrl (ABL1-nonphosphorylated): 87%
% Ctrl (PDGFRA): 95%
